# Test results published in US20100069319A1, “Mercaptopurine derivatives and uses thereof” (priority 2007, published 2010).
# Where two headings read alike, the source gives them in different places.
# Assays:
# N87 cells = test: XTT cell proliferation assay; type: cell-based, human; settings: 16 h
# Procedure: (§1) Cell proliferation was determined by the XTT viability assay in 96-well plates, based on the reduction of tetrazolium salt to soluble formazan compounds by living cells. Cells (10,000-15,000 cells/well) were seeded in a 96-well plate. After 16 h incubation with various concentrations of 6-MP, 6-MPR and their S-allylthio-derivatives, 50 μl of XTT/PMS mixture (50 μM PMS, 0.1% XTT in medium) was added onto the cells. After an incubation period of 3-4 h at 37° C. the absorbance of the samples was measured in an ELISA Reader at 450 nm. SDS (1%, 10 μl/well) was added to reference wells before adding the XTT/PMS solution.
# (§2) The inhibitory effects of the various prodrugs on Daudi leukemia cell and on monolayer N87 cells were compared. […] XTT was added to the wells for 3 h at 37° C. Cell viability was monitored using an ELISA reader at 450 nm, as described in Materials and Methods.
# Molt-4 = test: Anti-proliferative concentration IC50 (Table 2); type: cell-based; settings: Molt-4, 16 h, tested at 0-100 μM, read-out: Anti-proferative concentration - IC50 (mean ± SE)
# Procedure: as §1
# (§3) The results of viability and proliferation were expressed as mean values±SD (n=3-6). For each cell line, the results were analyzed using two-way analysis of variance (ANOVA) followed by Bonferroni's posttest for the factors of the drugs used and their various concentrations, considering p<0.05 as significant. IC50 values (mean±SEM) were obtained from the linear range of the viability curve versus drug concentration (XTT assay).
# (§4) In particular, cell in suspension, namely, Daudi, HL-60, U937, Molt-4, Jurkat and B-CLL, were tested at prodrug concentration of 0-100 μM, and monolayer cells, namely, Hela HtTA-1, MDR HT-29 and N87, were tested at prodrug concentration of 0-200 μM. in both cases, cell viability was determined by trypan blue dye exclusion assay. Data are presented in Table 2 hereinbelow for 6MP derivatives-treated for 16 h.
# Daudi cells = test: XTT cell proliferation assay; type: cell-based; settings: 16 h
# Procedure: as §1, §2
# U937 = test: Anti-proliferative concentration IC50 (Table 2); type: cell-based, human; settings: U937, 16 h, tested at 0-100 μM, read-out: Anti-proferative concentration - IC50 (mean ± SE)
# Procedure: as §1, §3, §4
# Jurkat = test: Anti-proliferative concentration IC50 (Table 2); type: cell-based, human; settings: 16 h, tested at 0-100 μM, read-out: Anti-proferative concentration - IC50 (mean ± SE)
# Procedure: as §1, §3, §4
# [1] = tested on: human peripheral blood mononuclear cells (PBMCs); settings: after 4 days of treatment, read-out: IC50, T-cell mitogen-induced blastogenesis; cited from earlier work
# Daudi = test: Anti-proliferative concentration IC50 (Table 2); type: cell-based; settings: 16 h, tested at 0-100 μM, read-out: Anti-proferative concentration - IC50 (mean ± SE)
# Procedure: as §1, §3, §4
# B-CLL cells = settings: 48 h, read-out: calculated IC50 for allicin induced-apoptosis; cited from earlier work
# Hela = test: Anti-proliferative concentration IC50 (Table 2); type: cell-based, human; settings: 16 h, tested at 0-200 μM, read-out: Anti-proferative concentration - IC50 (mean ± SE)
# Procedure: as §1, §3, §4
# N87 = test: Anti-proliferative concentration IC50 (Table 2); type: cell-based, human; settings: N87, 16 h, tested at 0-200 μM, read-out: Anti-proferative concentration - IC50 (mean ± SE)
# Procedure: as §1, §3, §4
# MDR HT-29 = test: Anti-proliferative concentration IC50 (Table 2); type: cell-based, human; settings: MDR HT-29, 16 h, tested at 0-200 μM, read-out: Anti-proferative concentration - IC50 (mean ± SE)
# Procedure: as §1, §3, §4
# HL-60 = test: Anti-proliferative concentration IC50 (Table 2); type: cell-based, human; settings: HL-60, 16 h, tested at 0-100 μM, read-out: Anti-proferative concentration - IC50 (mean ± SE)
# Procedure: as §1, §3, §4
smiles,measurement,setting,value
"OC[C@H]1O[C@@H](n2cnc3c(S)ncnc32)[C@H](O)[C@@H]1O [6-MPR, 6-mercaptopurine riboside, reference compound]",cell proliferation,"N87 cells; N87, 0-100 μM",no significant loss of cell proliferation
same,proliferation (residual),"N87 cells; N87, 150 μM",~75%
same,IC50,Molt-4; Homo sapiens,24.8 ± 2.5 µM
same,cell proliferation,Daudi cells; 0-100 μM,no significant loss of cell proliferation
same,IC50,"U937; Homo sapiens, U-937",> 200 µM
same,IC50,Jurkat; Homo sapiens,99 ± 11.9 µM
"Cn1cnc([N+](=O)[O-])c1Sc1ncnc2nc[nH]c12 [AZ, azathioprine]",IC50,[1],0.23 ± 0.231 µM
"C=CCS[S+]([O-])CC=C (stereo not drawn) [Allicin, reference compound]",IC50,Daudi; Homo sapiens,35.3 ± 4.2 µM
same,IC50,B-CLL cells,0.02 µM
same,IC50,Hela; Homo sapiens,104 ± 10.2 µM
same,IC50,N87; Homo sapiens,16.8 ± 3.3 µM
same,IC50,"U937; Homo sapiens, U-937",19.7 ± 2.1 µM
same,IC50,MDR HT-29; Homo sapiens,83.8 ± 7.8 µM
same,IC50,HL-60; Homo sapiens,5.5 ± 0.6 µM
"C=CCSSc1ncnc2c1ncn2[C@@H]1O[C@H](CO)[C@@H](O)[C@H]1O [SA-6MPR, S-allylthio-6-mercaptopurine 9-riboside]",residual proliferation / viability,"N87 cells; N87, 50 μM",about 70%
same,residual viability,"N87 cells; N87, 100 μM",~55%
same,proliferation,"N87 cells; N87, 150 μM",complete loss of proliferation
same,IC50,Daudi,70.8 ± 7.8 µM
same,IC50,Molt-4,16.9 ± 2.3 µM
same,residual proliferation,Daudi cells; 50 μM,60%
same,residual proliferation,Daudi cells; 100 μM,25%
same,IC50,Hela,> 200 µM
same,IC50,N87,120 ± 15.6 µM
same,IC50,U937,113 ± 10.9 µM
same,IC50,MDR HT-29,> 200 µM
same,IC50,HL-60,86.1 ± 9.5 µM
same,IC50,Jurkat,69.1 ± 7.5 µM
